Measurements: ChEMBL document CHEMBL1629634, “Postantibiotic effect of tigecycline against 14 gram-positive organisms” (Antimicrob Agents Chemother, 2009)
Converted amounts (≈) assume the structure as drawn.

Key:
Streptococcus pneumoniae [1] = assay: Antibacterial activity against penicillin-resistant Streptococcus pneumoniae assessed as post-antibiotic sub-MIC effect at 0.4 times MIC concentration pretreated with 10 times MIC concentration for 1 hr followed by 1:1000 dilution by viable plate count method; format: functional
Streptococcus pneumoniae [2] = assay: Antibacterial activity against penicillin-susceptible Streptococcus pneumoniae assessed as sub-MIC effect at 0.4 times MIC concentration incubated for 1 hr by viable plate count method; format: functional
Streptococcus pneumoniae [3] = assay: Antibacterial activity against penicillin-resistant Streptococcus pneumoniae assessed as post antibiotic effect at 10 times MIC concentration incubated for 1 hr measured after 1:1000 dilution by viable plate count method; format: functional
Staphylococcus aureus [4] = assay: Antibacterial activity against vancomycin-intermediate methicillin-resistant Staphylococcus aureus assessed as post-antibiotic sub-MIC effect at 0.3 times MIC concentration pretreated with 6 times MIC concentration for 1 hr followed by 1:1000 dilution by viable plate count method; format: functional
Staphylococcus aureus [5] = assay: Antibacterial activity against vancomycin-sensitive methicillin-resistant Staphylococcus aureus assessed as post-antibiotic sub-MIC effect at 0.4 times MIC concentration pretreated with 10 times MIC concentration for 1 hr followed by 1:1000 dilution by viable plate count method; format: functional
Enterococcus faecalis [6] = assay: Antibacterial activity against vancomycin-sensitive Enterococcus faecalis assessed as post-antibiotic sub-MIC effect at 0.2 times MIC concentration pretreated with 10 times MIC concentration for 1 hr followed by 1:1000 dilution by viable plate count method; format: functional
Enterococcus faecalis [7] = assay: Antibacterial activity against vancomycin-resistant Enterococcus faecalis assessed as post-antibiotic sub-MIC effect at 0.2 times MIC concentration pretreated with 10 times MIC concentration for 1 hr followed by 1:1000 dilution by viable plate count method; format: functional
Staphylococcus aureus [8] = assay: Antibacterial activity against vancomycin-intermediate methicillin-resistant Staphylococcus aureus assessed as sub-MIC effect at 0.4 times MIC concentration incubated for 1 hr by viable plate count method; format: functional
Acinetobacter baumannii [9] = assay: Antibacterial activity against Acinetobacter baumannii assessed as post antibiotic effect at 10 times MIC concentration incubated for 1 hr measured after 1:1000 dilution by viable plate count method; format: functional
Enterococcus faecalis [10] = assay: Antibacterial activity against vancomycin-resistant Enterococcus faecalis assessed as sub-MIC effect at 0.3 times MIC concentration incubated for 1 hr by viable plate count method; format: functional
Acinetobacter baumannii [11] = assay: Antibacterial activity against multidrug-resistant Acinetobacter baumannii producing OXA-24 and OXA-51 beta-lactamases by macrodilution method; format: functional
Haemophilus influenzae [12] = assay: Antibacterial activity against amoxicillin, clavulanate-resistant Haemophilus influenzae expressing beta-lactamase assessed as post-antibiotic sub-MIC effect at 0.2 times MIC concentration pretreated with 10 times MIC concentration for 1 hr followed by 1:1000 dilution by viable plate count method; format: functional
Acinetobacter baumannii [13] = assay: Antibacterial activity against Acinetobacter baumannii assessed as post-antibiotic sub-MIC effect at 0.4 times MIC concentration pretreated with 6 times MIC concentration for 1 hr followed by 1:1000 dilution by viable plate count method; format: functional
Streptococcus pneumoniae [14] = assay: Antibacterial activity against penicillin-intermediate Streptococcus pneumoniae assessed as sub-MIC effect at 0.2 times MIC concentration incubated for 1 hr by viable plate count method; format: functional
Haemophilus influenzae [15] = assay: Antibacterial activity against beta-lactamase deficient and ampicillin-resistant Haemophilus influenzae assessed as sub-MIC effect at 0.4 times MIC concentration incubated for 1 hr by viable plate count method; format: functional
Enterococcus faecalis [16] = assay: Antibacterial activity against vancomycin-sensitive Enterococcus faecalis assessed as sub-MIC effect at 0.3 times MIC concentration incubated for 1 hr by viable plate count method; format: functional
Haemophilus influenzae [17] = assay: Antibacterial activity against beta-lactamase deficient ampicillin-resistant Haemophilus influenzae assessed as post-antibiotic sub-MIC effect at 0.3 times MIC concentration pretreated with 10 times MIC concentration for 1 hr followed by 1:1000 dilution by viable plate count method; format: functional
Acinetobacter baumannii [18] = assay: Antibacterial activity against multidrug-resistant Acinetobacter baumannii producing OXA-24 and OXA-51 beta-lactamases assessed as sub-MIC effect at 0.2 times MIC concentration incubated for 1 hr by viable plate count method; format: functional
Enterobacter cloacae [19] = assay: Antibacterial activity against Enterobacter cloacae assessed as post-antibiotic sub-MIC effect at 0.3 times MIC concentration pretreated with 2 times MIC concentration for 1 hr followed by 1:1000 dilution by viable plate count method; format: functional
Escherichia coli [20] = assay: Antibacterial activity against Escherichia coli assessed as post-antibiotic sub-MIC effect at 0.3 times MIC concentration pretreated with 10 times MIC concentration for 1 hr followed by 1:1000 dilution by viable plate count method; format: functional
Staphylococcus aureus [21] = assay: Antibacterial activity against vancomycin-sensitive methicillin-resistant Staphylococcus aureus by macrodilution method; format: functional
Enterococcus faecalis [22] = assay: Antibacterial activity against vancomycin-sensitive Enterococcus faecalis by macrodilution method; format: functional
Haemophilus influenzae [23] = assay: Antibacterial activity against beta-lactamase deficient and ampicillin-resistant Haemophilus influenzae assessed as sub-MIC effect at 0.3 times MIC concentration incubated for 1 hr by viable plate count method; format: functional
Streptococcus pneumoniae [24] = assay: Antibacterial activity against penicillin-susceptible Streptococcus pneumoniae assessed as post antibiotic effect at 10 times MIC concentration incubated for 1 hr measured after 1:1000 dilution by viable plate count method; format: functional
Enterococcus faecalis [25] = assay: Antibacterial activity against vancomycin-resistant Enterococcus faecalis by macrodilution method; format: functional
Streptococcus pneumoniae [26] = assay: Antibacterial activity against penicillin-susceptible Streptococcus pneumoniae assessed as post-antibiotic sub-MIC effect at 0.2 times MIC concentration pretreated with 10 times MIC concentration for 1 hr followed by 1:1000 dilution by viable plate count method; format: functional
Streptococcus pneumoniae [27] = assay: Antibacterial activity against penicillin-susceptible Streptococcus pneumoniae assessed as sub-MIC effect at 0.2 times MIC concentration incubated for 1 hr by viable plate count method; format: functional
Acinetobacter baumannii [28] = assay: Antibacterial activity against Acinetobacter baumannii assessed as post-antibiotic sub-MIC effect at 0.3 times MIC concentration pretreated with 10 times MIC concentration for 1 hr followed by 1:1000 dilution by viable plate count method; format: functional
Staphylococcus aureus [29] = assay: Antibacterial activity against vancomycin-sensitive methicillin-resistant Staphylococcus aureus assessed as sub-MIC effect at 0.4 times MIC concentration incubated for 1 hr by viable plate count method; format: functional
Staphylococcus aureus [30] = assay: Antibacterial activity against vancomycin-intermediate methicillin-resistant Staphylococcus aureus assessed as post-antibiotic sub-MIC effect at 0.2 times MIC concentration pretreated with 10 times MIC concentration for 1 hr followed by 1:1000 dilution by viable plate count method; format: functional
Enterococcus faecalis [31] = assay: Antibacterial activity against vancomycin-resistant Enterococcus faecalis assessed as sub-MIC effect at 0.2 times MIC concentration incubated for 1 hr by viable plate count method; format: functional
Enterobacter cloacae [32] = assay: Antibacterial activity against Enterobacter cloacae assessed as post-antibiotic sub-MIC effect at 0.2 times MIC concentration pretreated with 2 times MIC concentration for 1 hr followed by 1:1000 dilution by viable plate count method; format: functional
Escherichia coli [33] = assay: Antibacterial activity against Escherichia coli infected in neutropenic mouse thighs assessed as post antibiotic effect; format: functional, Thigh muscle
Klebsiella pneumoniae = assay: Antibacterial activity against Klebsiella pneumoniae by macrodilution method; format: functional
Staphylococcus aureus [34] = assay: Antibacterial activity against vancomycin-sensitive methicillin-resistant Staphylococcus aureus assessed as post-antibiotic sub-MIC effect at 0.3 times MIC concentration pretreated with 10 times MIC concentration for 1 hr followed by 1:1000 dilution by viable plate count method; format: functional
Streptococcus pneumoniae [35] = assay: Antibacterial activity against penicillin-resistant Streptococcus pneumoniae by macrodilution method; format: functional

Structure (SMILES): CN(C)c1cc(NC(=O)CNC(C)(C)C)c(O)c2c1C[C@H]1C[C@H]3[C@H](N(C)C)C(O)=C(C(N)=O)C(=O)[C@@]3(O)C(O)=C1C2=O [TIGECYCLINE]
- PAE (Streptococcus pneumoniae [1]): 10.2 h
- PAE (Streptococcus pneumoniae [2]): 0.8 h
- PAE (Streptococcus pneumoniae [3]): 4.8 h
- PAE (Staphylococcus aureus [4]): 9.8 h
- PAE (Staphylococcus aureus [5]): 6.7 h
- PAE (Enterococcus faecalis [6]): 5.3 h
- PAE (Enterococcus faecalis [7]): 7.6 h
- PAE (Staphylococcus aureus [8]): 2.9 h
- PAE (Acinetobacter baumannii [9]): 2.9 h
- PAE (Enterococcus faecalis [10]): 0.3 h
- MIC (Acinetobacter baumannii [11]): 2 µg/mL (≈ 3.41 µM)
- PAE (Haemophilus influenzae [12]): 3.9 h
- PAE (Acinetobacter baumannii [13]): > 11.2 h
- PAE (Streptococcus pneumoniae [14]): 1.9 h
- PAE (Haemophilus influenzae [15]): 0.8 h
- PAE (Enterococcus faecalis [16]): 0.2 h
- PAE (Haemophilus influenzae [17]): 2.8 h
- PAE (Acinetobacter baumannii [18]): 0.4 h
- PAE (Enterobacter cloacae [19]): 4.9 h
- PAE (Escherichia coli [20]): 2.2 h
- MIC (Staphylococcus aureus [21]): 0.12 µg/mL (≈ 0.205 µM)
- MIC (Enterococcus faecalis [22]): 0.06 µg/mL (≈ 0.102 µM)
- PAE (Haemophilus influenzae [23]): 0.8 h
- PAE (Streptococcus pneumoniae [24]): 3.7 h
- MIC (Enterococcus faecalis [25]): 0.06 µg/mL (≈ 0.102 µM)
- PAE (Streptococcus pneumoniae [26]): 5.9 h
- PAE (Streptococcus pneumoniae [27]): 0 h
- PAE (Acinetobacter baumannii [28]): 11.2 h
- PAE (Staphylococcus aureus [29]): 0.9 h
- PAE (Staphylococcus aureus [30]): 6.6 h
- PAE (Enterococcus faecalis [31]): 0.4 h
- PAE (Enterobacter cloacae [32]): 2.9 h
- PAE (Escherichia coli [33]): 4.9 h
- MIC (Klebsiella pneumoniae): 0.25 µg/mL (≈ 0.427 µM)
- PAE (Staphylococcus aureus [34]): 5.2 h
- MIC (Streptococcus pneumoniae [35]): 0.03 µg/mL (≈ 0.0512 µM)
